Experimental data reported in US12599657B2 (priority 2020, dated 2026).
Like-named read-outs stand apart in the source and are kept apart here.

Experiments:
E. tenella [1] = settings: Third Study; Day 26; 0 to 4 score; Salinomycin 60 g/ton No Vacc; Disclosed compound 1.0/1.0/0.5 lb/ton with Vacc
E. acervulina [2] = settings: First Study; DOT 26; Johnson and Reid 0 to 4 score; Salinomycin 60 gms/ton No Vaccine; Cocci Vaccine alone
[3] = test system: E. acervulina, E. maxima, and E. tenella; test: Third Study: total oocysts per gram of feces; assay type: in vivo, male broiler chicks
E. acervulina [4] = settings: First Study; feces on DOT 26; Salinomycin 60 gms/ton No Vaccine; Cocci Vaccine alone
E. maxima [5] = settings: Third Study; Day 26; 0 to 4 score; Salinomycin 60 g/ton No Vacc; Disclosed compound 1.0/1.0/0.5 lb/ton with Vacc
E. acervulina [6] = settings: Third Study; feces Day 26; Salinomycin 60 g/ton No Vacc; Disclosed compound 1.0/1.0/0.5 lb/ton with Vacc
[7] = test system: E. acervulina, E. maxima, and E. tenella; test: First Study: average coccidia lesion score; assay type: in vivo, broiler; settings: DOT 26, Johnson and Reid 0 to 4 score, Salinomycin 60 gms/ton No Vaccine, Cocci Vaccine alone
E. maxima [8] = settings: First Study; feces on DOT 26; Salinomycin 60 gms/ton No Vaccine; Cocci Vaccine alone
E. acervulina [9] = settings: Third Study; Day 26; 0 to 4 score; Salinomycin 60 g/ton No Vacc; Disclosed compound 1.0/1.0/0.5 lb/ton with Vacc
E. tenella [10] = settings: Third Study; feces Day 26; Salinomycin 60 g/ton No Vacc; Disclosed compound 1.0/1.0/0.5 lb/ton with Vacc
E. maxima [11] = settings: Third Study; feces Day 26; Salinomycin 60 g/ton No Vacc; Disclosed compound 1.0/1.0/0.5 lb/ton with Vacc
[12] = test system: E. acervulina, E. maxima, and E. tenella; test: First Study: broiler performance (feed intake, FCR, weight gain, mortality) under coccidia challenge; assay type: in vivo; settings: Cocci Vaccine alone
Method: (§1) Testing in all three studies set forth below was undertaken using a high oocyst dose vaccine, Coccivac-B52 (trademark, Intervet Inc.), a product sold by Merck Animal Health. According to the manufacturer, Coccivac-B52 contains E. acervulina, E. maxima, E. mivati, and E. tenella. The vaccine was mixed with water at a dosage of 240 ml of water per 1,000 doses. The vaccine-water combination was placed in a sealed vaccine container and mixed by stirring and inversion of the container. The mixed vaccine-water combination was sprayed onto each chick when one day old in a conventional spray cabinet. It was estimated that each chick ingested an equal number of droplets so as to result in the ingestion of about 240 μL dose per chick.
The rations consisted of non-medicated commercial-type broiler starter, grower, and finisher diets compounded according to NRC guidelines and contained feedstuffs commonly used in the United States. As a common regime rations for some but not necessarily all studies were fed ad libitum from date of chick arrival as follows: Starter—DOT 0 until DOT 14, grower DOT 14 to DOT 28, and finisher from DOT 28 to DOT 42 (study termination).
Diets were fed as crumbles in starter and pellets in grower and finisher. Experimental treatment feeds were prepared from a basal feed formulation. Quantities of all basal feed and test articles included in treatment group batches were documented and included with source data files. Treatment feeds were mixed prior to pelleting to assure uniform distribution of respective test articles.
Fifteen hundred birds (1,500) were assigned to six (6) treatment groups with ten (10) replicate pens per treatment and 25 birds per pen. The study began when birds were placed (day-of-hatch; DOT 0), at which time birds were allocated to experimental pens. Only healthy birds were selected. On DOT 0, group body weights were recorded by pen. No birds were replaced during the course of the study.
Birds received treatment-appropriate feed from day 0 to day 42. On day 14, remaining starter feed was removed, weighed, and replaced with grower feed to day 28. On day 28, the remaining grower feed was removed, weighed back, and replaced with finisher feed to day 42.
On Day 42, the trial was terminated.

[13] = test system: E. acervuline, E. maxima, and E. tenella; test: Third Study: broiler performance (feed intake, FCR, weight gain, mortality) under coccidia challenge; assay type: in vivo, male broiler chicks; settings: Disclosed compound 1.0/1.0/0.5 lb/ton with Vacc
Method: as §1
Rations consisted of non-medicated commercial-type broiler starter, grower, and finisher diets compounded according to NRC guidelines and contain feedstuffs commonly used in the United States. Day-of-hatch male broiler chicks were utilized in the study. Rations were fed ad libitum from date of chick arrival as follows: Starter—day 0 until day 14, grower day 14 to day 28, and finisher from day 28 to day 42 (the end date of the study). Coccidia vaccination for treatments 4 and 5 only.
One thousand five hundred birds (1,500) were randomly assigned to 5 treatment groups with 12 replicate pens per treatment and 25 birds per pen. The study began when birds were placed (day-of-hatch; DAY 0), at which time birds were allocated to experimental pens. On day 0, group body weights were recorded by pen. No birds were replaced during the course of the study.
All birds were weighed by pen on days 0, 14, 28, and 42. Feed added to each pen's feeder was weighed at the beginning of each formulation period on day 0 (starter), day 14 (grower), and day 28 (finisher). Feed was distributed as needed to feeders from pre-weighed bags assigned to each pen throughout each period. Feed remaining in feeders was weighed and disposed of on days 14, 28, and 42. The trial was terminated on day 42.

[14] = test system: E. acervulina, E. maxima, and E. tenella; test: First Study: total oocysts per gram of feces; assay type: in vivo, broiler; settings: feces on DOT 26, Salinomycin 60 gms/ton No Vaccine, Cocci Vaccine alone
[15] = test system: E. acervuline, E. maxima, and E. tenella; test: Third Study: broiler performance (feed intake, FCR, weight gain, mortality) under coccidia challenge; assay type: in vivo, male broiler chicks; settings: Day 0 to 41, challenge day 21, Salinomycin 60 g/ton No Vacc, Disclosed compound 1.0/1.0/0.5 lb/ton with Vacc
E. maxima [16] = settings: First Study; DOT 26; Johnson and Reid 0 to 4 score; Salinomycin 60 gms/ton No Vaccine; Cocci Vaccine alone
[17] = test system: E. acervulina, E. maxima, and E. tenella; test: Third Study: average coccidia lesion score; assay type: in vivo, male broiler chicks; settings: Day 26, 0 to 4 score, Salinomycin 60 g/ton No Vacc, Disclosed compound 1.0/1.0/0.5 lb/ton with Vacc
E. tenella [18] = settings: First Study; feces on DOT 26; Salinomycin 60 gms/ton No Vaccine; Cocci Vaccine alone
E. tenella [19] = settings: First Study; DOT 26; Johnson and Reid 0 to 4 score; Salinomycin 60 gms/ton No Vaccine; Cocci Vaccine alone
[20] = Day 0 to 14, cocci challenge Day 20, Salinomycin 60 gms/ton No Vaccine
[21] = Day 0 to 28, cocci challenge Day 20, Salinomycin 60 gms/ton No Vaccine
[22] = Day 0 to 42, cocci challenge Day 20, Salinomycin 60 gms/ton No Vaccine
[23] = Day 0 to 14, challenge day 21, Salinomycin 60 g/ton No Vacc
[24] = Day 0 to 28, challenge day 21, Salinomycin 60 g/ton No Vacc

CC[C@@H](C(=O)[C@@H](C)[C@@H](O)[C@H](C)[C@@H]1O[C@@H]([C@@H](CC)C(=O)O)CC[C@@H]1C)[C@H]1O[C@]2(C=C[C@@H](O)[C@]3(CC[C@@](C)([C@H]4CC[C@](O)(CC)[C@H](C)O4)O3)O2)[C@H](C)C[C@@H]1C [Salinomycin]
Mean Coccidia Lesion Score, E. tenella (E. tenella [1]): 2.03AB
Mean Coccidia Lesion Score, E. acervulina (E. acervulina [2]): 1.80BC
count of oocysts among groups ([3]; day of feces collection (day 27)): highest count of oocysts
Total OPG ([3]; feces Day 26, Salinomycin 60 g/ton No Vacc, Disclosed compound 1.0/1.0/0.5 lb/ton with Vacc): 55,117A oocysts per gram
OPG A (E. acervulina [4]): 49418AB oocysts per gram
Mean Coccidia Lesion Score, E. maxima (E. maxima [5]): 1.78AB
OPG A (E. acervulina [6]): 23,995A oocysts per gram
Mean Coccidia Lesion Score, Average [7]: 1.97BC
OPG M (E. maxima [8]): 2615A oocysts per gram
Mean Coccidia Lesion Score, E. acervulina (E. acervulina [9]): 2.31A
OPG T (E. tenella [10]): 21,455A oocysts per gram
OPG M (E. maxima [11]): 9,666A oocysts per gram
Adjusted FCR (feed conversion ratio adjusted for mortality) [12, 20]: 1.58A
Feed Intake [12, 20]: 11.48A
Non-Adjusted FCR [12, 20]: 1.60A
Weight Gain [12, 20]: 0.31B kg
Adjusted FCR (feed conversion ratio adjusted for mortality) [12, 21]: 1.64B
Feed Intake [12, 21]: 38.69C
Non-Adjusted FCR [12, 21]: 1.78AB
Weight Gain [12, 21]: 1.01B kg
Adjusted FCR (feed conversion ratio adjusted for mortality) [12, 22]: 1.67B
Cocci Percent Mortality [12, 22]: 8.40A Percent
Feed Intake [12, 22]: 80.16B
Non-Adjusted FCR [12, 22]: 1.81AB
Percent Mortality [12, 22]: 18.00A Percent
Weight Gain [12, 22]: 2.39AB kg
Adjusted FCR (FCR adjusted for mortality) [13, 23]: 1.41A
Feed Intake [13, 23]: 12.09A
Non-Adjusted FCR [13, 23]: 1.42A
Weight Gain [13, 23]: 0.34B kg
Adjusted FCR (FCR adjusted for mortality) [13, 24]: 1.50AB
Feed Intake [13, 24]: 44.75B
Non-Adjusted FCR [13, 24]: 1.51B
Weight Gain [13, 24]: 1.20B kg
Total OPG [14]: 52866AB oocysts per gram
Adjusted FCR (FCR adjusted for mortality) [15]: 1.60AB
Cocci Percent Mortality [15]: 0.00A Percent
Feed Intake [15]: 92.63B
Non-Adjusted FCR [15]: 1.61BC
Percent Mortality [15]: 1.33B Percent
Weight Gain [15]: 2.49BC kg
Percent Mortality ([15]; listed as salinomycin): 1.33%
Mean Coccidia Lesion Score, E. maxima (E. maxima [16]): 1.93A
Mean Coccidia Lesion Score, Average [17]: 2.04AB
OPG T (E. tenella [18]): 834A oocysts per gram
Mean Coccidia Lesion Score, E. tenella (E. tenella [19]): 2.17AB
